# Source: patent publication US20200187504A1, “ENVIRONMENTALLY FRIENDLY COMPOSITIONS FOR FOLIAR AND GRANULAR CONTROL OF WEEDS” (priority 2018, published 2020)
# Experiments:
# [1] = tested on: French marigold; details: Choi et al. (1996); cited from earlier work
# [2] = tested on: seed geranium; details: Lee et al. (1996), in combination with nitrogen, phosphorus, and potassium; cited from earlier work
# [3] = tested on: humans; details: 2005 carcinogen assessment guidelines; cited from earlier work
# [4] = tested on: selected grasses and forbs; details: greenhouse trials, Munshower and others (2006); cited from earlier work
# [5] = tested on: Forbs (Weeds); assay: Weedy turf test plots: forb (weed) cover and weed control after treatment; assay type: in vivo; details: for control of invasive weeds, in words: Fall-treated turf plots of Table 4, 10-month study period, rate as in the label; for Forbs (Weeds) 8 months: cover in weedy turf plots of Table 4, 8 months; for Forbs (Weeds) 10 months: cover in weedy turf plots of Table 4, 10 months; for Forbs (Weeds) 12 months: cover in weedy turf plots of Table 4, 12 months; for 8-12 month average weed cover: weedy turf plots of Table 4
# Text: Then, multiple plots were installed in weedy turf for liquid boron fertilizer application. The plots listed in Table 4 were used for varying application rates of B1300 where the amount of liquid applied to each plot varied. The sprayer was weighed before and after each application and the application rate determined by calculation knowing the concentration of B1300 liquid applied. The results of foliar liquid applied in controlling invasive species is reported in FIG. 3 and compared to an untreated control. As presented in FIG. 3, […] rates of liquid B1300 (47 pounds B/acre, 62 pounds B/acre, 75 pounds B/acre, and 93 pounds B/acre), which show the effectiveness of each rate in limiting the growth of invasive plant species. The weedy plants controlled included dandelion (Taraxacum officiniale), oxeye daisy (Chrysanthemum leucanthemum), black medic (Medicago lupulina), Canadian thistle (Circium arvense), and white clover (Trifolium repens). The desirable perennial grasses that were unharmed or stimulated included Kentucky bluegrass (Poa pratensis) and smooth brome (Bromus inermis). The effectiveness of relevant commercial products targeting control of invasive plant species are shown in FIG. 5C and include glyphosate, Natria FeHEDTA and 2-4 D.
# (§1) Table 4 lists the tested plots with various treatment using granular and/or liquid boron formulations alone, or in combination with another micronutrient Cu and/or macronutrients including N, P, K. FIG. 3 and FIGS. 5A-5E represent phytotoxicity effect on weed control by investigating coverage after the desired treatments from the test plots listed in Table 4. Also, FIGS. 9A-9D to FIGS. 25A-25D present actual vegetation conditions of each plot after the desired treatment described in Table 4.
# […] At this North American field site snow covered the ground from approximately December through March. The weedy plants controlled included dandelion (Taraxacum officiniale), oxeye daisy (Chrysanthemum leucanthemum), black medic (Medicago lupulina), Canadian thistle (Circium arvense), and white clover (Trifolium repens). The desirable perennial grasses that were unharmed or stimulated included Kentucky bluegrass (Poa pratensis) and smooth brome (Bromus inermis).
# [6] = tested on: Perennial Grass; assay: Weedy turf test plots: perennial grass cover and turf stress after treatment; assay type: in vivo; details: for Perennial Grass 8 months: cover in weedy turf plots of Table 4, 8 months, B and N rates per treatment; for Perennial Grass 10 months: cover in weedy turf plots of Table 4, 10 months; for Perennial Grass 12 months: cover in weedy turf plots of Table 4, 12 months; for 8-12 month average grass cover: weedy turf plots of Table 4
# Text: Then, multiple plots were installed in weedy turf for liquid boron fertilizer application. The plots listed in Table 4 were used for varying application rates of B1300 where the amount of liquid applied to each plot varied. The sprayer was weighed before and after each application and the application rate determined by calculation knowing the concentration of B1300 liquid applied. The results of foliar liquid applied in controlling invasive species is reported in FIG. 3 and compared to an untreated control. As presented in FIG. 3, the plots were monitored 1 month, 8 months and 10 months after four different application rates of liquid B1300 (47 pounds B/acre, 62 pounds B/acre, 75 pounds B/acre, and 93 pounds B/acre), which show the effectiveness of each rate in limiting the growth of invasive plant species. The weedy plants controlled included dandelion (Taraxacum officiniale), oxeye daisy (Chrysanthemum leucanthemum), black medic (Medicago lupulina), Canadian thistle (Circium arvense), and white clover (Trifolium repens). The desirable perennial grasses that were unharmed or stimulated included Kentucky bluegrass (Poa pratensis) and smooth brome (Bromus inermis). The effectiveness of relevant commercial products targeting control of invasive plant species are shown in FIG. 5C and include glyphosate, Natria FeHEDTA and 2-4 D.
# as §1
# In this example the fertilizer was applied to weedy turf grass in September with approximately 50% invasive plant cover and then monitored again one, eight and ten months after initial application. At this North American field site snow covered the ground from approximately December through March. The weedy plants controlled included dandelion (Taraxacum officiniale), oxeye daisy (Chrysanthemum leucanthemum), black medic (Medicago lupulina), Canadian thistle (Circium arvense), and white clover (Trifolium repens). The desirable perennial grasses that were unharmed or stimulated included Kentucky bluegrass (Poa pratensis) and smooth brome (Bromus inermis).
# [7] = tested on: weedy turf; assay: Weedy turf test plots: Vegetation Ranking Index; assay type: in vivo; details: healthy perennial grass cover x 3.5 minus 2.5 x stressed/unhealthy grass minus weed cover
# Text: as §1
# [8] = tested on: prostrate knotweed; assay: Foliar spray on prostrate knotweed, compared with Roundup; assay type: in vivo, Polygonum aviculare
# Text: In this example, liquid B1300 product was formulated by dissolving 1300 grams of 20.5% Boron (Solubor®) into 4 gallons of water for a foliar spray to target plants, either with or without ‘drizzle down’ of the liquid into the roots. Also, liquid B1440 product was formulated by dissolving 1440 grams of 20.5% Boron (Solubor®) into 4 gallons of water. Many invasive plants are controlled by B1300 foliar spray as presented in FIGS. 1A-1C or B1440 foliar spray as presented in FIGS. 2A-2C. Annual invasive plant species are easily controlled by phytotoxic nutrient addition since they have to grow from seed every year and have the least reliance on well—developed/extensive root systems and/or taproots that store plant resources. Annual invasive plants also have to grow from near the soil surface every year where it is easiest to add phytotoxic micronutrients and change the soil chemistry to inhibit or control the annual plant's growth. Perennial invasive plants grow every year from the previous years roots and take generally two forms: tap root species and extensive well-developed root systems. In general, it is difficult to control these invasive perennial plants compared to annual plants due to roots with plant resources deep in the soil. […]
# [9] = tested on: chlorophyllitic plants; details: as little as; cited from earlier work
structure (smiles),measurement,setting,value
"[Fe] [Fe, iron]",concentration inducing micro-nutrient toxicity,[1],4000 µM
same,concentration of nutrient solution inducing toxicity symptoms,[2],500 µM
"[Zn] [Zn, zinc]",concentration inducing micro-nutrient toxicity,[1],5000 µM
same,concentration of nutrient solution inducing toxicity symptoms,[2],500 µM
OB(O)O [boric acid],U.S. EPA carcinogenicity classification,[3],not likely to be carcinogenic to humans
"[B] [B, boron]",solution concentration at which plants performed adequately,[4],up to 40 mg B/L
same,concentration inducing micro-nutrient toxicity,[1],500 µM
same,concentration of nutrient solution inducing toxicity symptoms,[2],500 µM
"[Mo] [Mo, molybdenum]",concentration inducing micro-nutrient toxicity,[1],1000 µM
same,concentration of nutrient solution inducing toxicity symptoms,[2],250 µM
"O=C(O)CNCP(=O)(O)O [Glyphosate (S), glyphosate]","control of invasive weeds, in words",[5],dominated by weeds by mid-summer
same,effectiveness in treated turf plots,[5]; about 30 days after treatment,100%
same,Forbs (Weeds) 8 months,[5],10%
same,Forbs (Weeds) 10 months,[5],95%
same,Forbs (Weeds) 12 months,[5],90%
same,weed cover,"[5]; next year after treatment, pre-treatment ~50% weed cover",~75%
same,8-12 month average weed cover,[5],65%
same,"stress on perennial turf grasses, in words","[6]; Fall-treated turf plots of Table 4, 10-month study period, rate as in the label",has no perennial grasses
same,Perennial Grass 8 months,[6],0%
same,Perennial Grass 10 months,[6],0%
same,Perennial Grass 12 months,[6],0%
same,8-12 month average grass cover,[6],0%
same,Vegetation Ranking Index,[7],−133
same,"effectiveness on prostrate knotweed, in words","[8]; along a gravel trail, FIG. 26D",highly effective
same,effectiveness in rain affected test,"[8]; plots put out 3 hours before a heavy rain (~1.0"")",highly effective
same,application rate effective at causing photosynthetic disruption,[9],0.75 pounds active ingredient per acre
"[Cu] [Cu, copper]",concentration inducing micro-nutrient toxicity,[1],4000 µM
same,concentration of nutrient solution inducing toxicity symptoms,[2],500 µM
"[Mn+2] [Mn, manganese]",concentration inducing micro-nutrient toxicity,[1],2000 µM
same,concentration of nutrient solution inducing toxicity symptoms,[2],1000 µM
"O=C(O)COc1ccc(Cl)cc1Cl [2-4D (S), 2,4-Dichlorophenoxyacetic acid]","control of invasive weeds, in words",[5],short-term treatment effect
same,Forbs (Weeds) 8 months,[5],5%
same,Forbs (Weeds) 10 months,[5],15%
same,Forbs (Weeds) 12 months,[5],22%
same,8-12 month average weed cover,[5],14%
same,Perennial Grass 8 months,[6],90%
same,Perennial Grass 10 months,[6],85%
same,Perennial Grass 12 months,[6],78%
same,8-12 month average grass cover,[6],84%
same,Vegetation Ranking Index,[7],13
